From paper PMC5476563, “Structure-Guided Design of C4-alkyl-1,4-dihydro-2H-pyrimido[4,5-d][1,3]oxazin-2-ones as Potent and Mutant-Selective Epidermal Growth Factor Receptor (EGFR) L858R/T790M Inhibitors” (Scientific Reports, 2017)
Values joined by “and” are separate entries in the source; they are usually repeats but may differ in a detail not shown here. Equal entries are not always repeated.

Assays:
[1] = target: T1, EGFR^WT (Homo sapiens, UniProt P00533); test: ELISA-based EGFR-TK enzymatic activity assay (WT); format: biochemical; settings: mean ± SD, at least three determinations, read-out: Enzyme Inhibitory Activity (IC50, nM) WT
T1 construct: Kinases domain of EGFR^L858R/T790M and EGFR^WT were expressed by using the Bac-to-Bac™ baculovirusexpression system; made in house
T1 sequence (P00533 712-979 limits assumed): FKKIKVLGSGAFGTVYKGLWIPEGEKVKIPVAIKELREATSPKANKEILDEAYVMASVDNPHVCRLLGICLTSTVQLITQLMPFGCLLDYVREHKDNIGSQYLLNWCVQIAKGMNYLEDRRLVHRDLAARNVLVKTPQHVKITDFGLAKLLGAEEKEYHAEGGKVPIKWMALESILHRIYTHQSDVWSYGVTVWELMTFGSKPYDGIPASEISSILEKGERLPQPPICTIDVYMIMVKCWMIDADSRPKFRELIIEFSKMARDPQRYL
Method: In vitro antiproliferation activities of the compounds were examined through using the sulforhodamine B (SRB) colourimetric assay.
(§1) The enzymatic activity assay was evaluated by using the well-established ELISA-based assay. […] The detailed experiment was performed according to the published literature.

[2] = target: T2, EGFR^L858R/T790M (Homo sapiens, UniProt P00533, L858R/T790M); test: ELISA-based EGFR-TK enzymatic activity assay (dual mutant); format: biochemical; settings: for IC50: ELISA-based EGFR-TK assay, mean ± SD, at least three determinations, read-out: Enzyme Inhibitory Activity (IC50, nM) L858R/T790M; for Enzyme Selectivity WT:DM: ratio IC50 EGFR^WT : EGFR^L858R/T790M
T2 construct: Kinases domain of EGFR^L858R/T790M and EGFR^WT were expressed by using the Bac-to-Bac™ baculovirusexpression system; made in house
T2 sequence (P00533 712-979 T790M/L858R limits assumed): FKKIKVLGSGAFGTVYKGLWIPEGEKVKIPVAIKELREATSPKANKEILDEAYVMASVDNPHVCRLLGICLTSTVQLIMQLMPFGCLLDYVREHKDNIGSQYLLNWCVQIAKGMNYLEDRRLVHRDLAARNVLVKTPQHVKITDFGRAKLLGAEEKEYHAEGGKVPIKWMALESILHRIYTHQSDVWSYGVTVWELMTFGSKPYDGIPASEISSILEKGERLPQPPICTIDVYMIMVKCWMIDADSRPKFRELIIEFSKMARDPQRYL
Method: as §1

[3] = system: A431 cells (expressing EGFR^WT); test: Sulforhodamine B (SRB) cellular antiproliferation assay, A431; format: cell-based; settings: Homo sapiens, A-431, 72 h, mean ± SD, read-out: Cellular Antiproliferative Activity (IC50, nM) A431
Source text: (§2) Having explored potent inhibition and obvious selectivity of EGFR kinases by introduction of alkyl groups to C4-position to the 1,4-dihydro-2H-pyrimido[4,5-d][1,3]oxazin-2-one ring, we subsequently evaluated their anti-proliferative activities in H1975 cells (expressing EGFR^L858R/T790M) and A431 cells (expressing EGFR^WT) in vitro by using the sulforhodamine B (SRB) colourimetric assay. The anti-proliferative activities of our designed compounds against H1975 and A431 cell lines range from 135 nM to more than 9 μM and from 554 nM to more than 7 μM, respectively (Fig. 5). Additionally, the selectivity at the cellular level is from 0.7 to 9.4-fold.
(§3) In vitro cellular antiproliferation activities of the designed compounds against H1975 and A431 cell lines were examined by using the well-established sulforhodamine B (SRB) colorimetric assay. The detailed experiment was performed according to the published literature. Briefly, H1975 and A431 cells were seeded in 96-well plates, and allowed to adhere overnight followed by treated with gradient concentrations of the test compounds for 72 h. […] The IC50 values were obtained by using the Logit method and reported as the mean ± SD from three independent determinations.

[4] = system: H1975 cells (expressing EGFR^L858R/T790M); test: Sulforhodamine B (SRB) cellular antiproliferation assay, H1975; format: cell-based; settings: for IC50: Homo sapiens, NCI-H1975, SRB assay, 72 h, mean ± SD, read-out: Cellular Antiproliferative Activity (IC50, nM) H1975; for Cellular Selectivity A431:H1975: ratio IC50 A431 : H1975
Source text: as §2, §3

[5] = system: phosphorylation of EGFR^L858R/T790M, AKT and ERK in H1975 cells; test: Western blot analysis of EGFR and downstream signaling phosphorylation, H1975; format: cell-based; settings: 2 h incubation, EGF 50 ng/mL 10 min
Method: (§4) Cells were starved in serum-free medium for 24 h before incubation of indicated concentrations of compounds 20a and 8 (positive control) and harvested after stimulation by EGF (50 ng/mL) for 10 min. Phosphorylation of EGFR and downstream signaling substrates was examined by Western Blot analysis. Blot source data is provided in Supplementary Fig. S1.
(§5) Western blot analysis was performed with standard procedures. Briefly, H1975 and A431 cell lines were seeded in six-well plates, starved in serum-free medium for 24 h, followed by incubation for 2 h in the presence of different concentrations of compounds 20a and 8 (as positive control). Cells were stimulated by the addition of EGF (50 ng/mL, R&D Systems, US) for 10 min, then washed with PBS and lysed in SDS lysis buffer. Antibodies against p-EGFR (Y1068; #3777 S), EGFR (#4267 S), p-ERK (T202/Y204; #4370 L), ERK (#4695 S), p-AKT (Ser473), AKT and Tubulin were used (Cell Signaling Technologies, Cambridge, MA).

[6] = system: activation of EGFR^WT in A431 cells; test: Western blot analysis of EGFR phosphorylation, A431; format: cell-based
Method: as §4, §5

[7] = system: H1975 xenograft driven by EGFR^L858R/T790M; test: In vivo antitumor efficacy, H1975 NSCLC xenograft mouse model; set-up: species or system nude mice; settings: 14 days; for tumor growth inhibition (TGI): 50 mg/kg orally once per day, final day vs vehicle, P < 0.05
Method: H1975 cells were implanted as described in Methods. […] H1975 xenograft mouse model tumor volumes (A) and body weights (B) were recorded every two or three days. All values represent mean ± SEM.
All experimental procedures involving animals were performed in accordance with the ethical guidelines from Shanghai Laboratory Animal Public Service Center and Animal Ethics Committee of the East China University of Science and Technology. The whole experimental protocol was also approved by the Animal Ethics Committee of the East China University of Science and Technology. All 4–6 weeks old nude mice were purchased from Shanghai Slac Laboratory Animal Co. Ltd (The license of experimental animal: SCXK (shanghai) 2012–0002). The mice were maintained under the 12 hour light/dark cycles condition in the specific pathogen free (SPF) cleanroom with fresh air (more than 50%), appropriate temperature (22–26 °C) and humidness (40–60%). All materials and containers were disinfected and sterilized before use. Nude mice, aged 4–6 weeks, were inoculated subcutaneously into the right flank with H1975 NSCLC cells (approximately 2 × 10^6 cells/mouse). When the tumor size reached a volume of ~200−400 mm^3, animals were randomly assigned into control and treated groups (n = 3/group). […] The sizes of tumor volume (V) were measured every two or three days by using vernier caliper, and were calculated with the formula V = (L × W^2)/2, where L and W stands for length and width, respectively.

[8] = target: T2, EGFR^L858R/T790M; set-up: method as in PMID 27396610; settings: previously reported; cited from earlier work

Row | Compound | IC50 [1] | IC50 [2] | Enzyme Selectivity WT:DM [2] | IC50 [3] | IC50 [4] | Cellular Selectivity A431:H1975 [4] | concentration inhibiting ERK phosphorylation [5] | concentration inhibiting phosphorylation of AKT [5] | concentration inhibiting phosphorylation of EGFR^L858R/T790M [5] | concentration at which obvious effect on EGFR activation appears [6] | tumor growth inhibition (TGI) [7] | effect on body weight / tolerability ([7]; 50 mg/kg/day orally) | selectivity EGFR^L858R/T790M kinase over EGFR^WT kinase [8]
1 | C=CC(=O)Nc1cccc(N2C(=O)OC(C)(C)c3cnc(Nc4ccc(N5CCN(C)CC5)cc4OC)nc32)c1 [20a, N-(3-(7-((2-Methoxy-4-(4-methylpiperazin-1-yl)phenyl)amino)-4,4-dimethyl-2-oxo-2H-pyrimido[4,5-d][1,3]oxazin-1(4H)-yl)phenyl)acrylamide] | 156 nM | 4.5 nM | ~35 fold | 1270 nM | 135 nM | 9.4 fold | 100 nM | 10 nM | 10 nM | 1 µM | 71% | no obvious effect on the body weight | –
2 | C=CC(=O)Nc1cccc(Nc2nc(Nc3ccc(N4CCN(C(C)=O)CC4)cc3OC)ncc2C(F)(F)F)c1 [compound 7, CO-1686, reference compound] | – | – | – | 1120 ± 117 nM | 73 ± 21 nM | – | – | – | – | – | 72% | – | –
3 | C=CC(=O)Nc1cccc(N2C(=O)OC(C(C)C)c3cnc(Nc4ccc(N5CCN(C)CC5)cc4OC)nc32)c1 (centres unmarked) [16d, N-(3-(7-((2-Methoxy-4-(4-methylpiperazin-1-yl)phenyl)amino)-2-oxo-4-isopropyl-2H-pyrimido[4,5-d][1,3]oxazin-1(4H)-yl)phenyl)acrylamide] | 183 ± 47 nM | 217 ± 86 nM | 0.8 fold | 1160 ± 279 nM | 1110 ± 748 nM | 1.0 fold | – | – | – | – | – | – | –
4 | C=CC(=O)Nc1cccc(N2C(=O)OC(C)c3cnc(Nc4ccc(N5CCN(C)CC5)cc4OC)nc32)c1 (centres unmarked) [16a, N-(3-(7-((2-Methoxy-4-(4-methylpiperazin-1-yl)phenyl)amino)-4-methyl-2-oxo-2H-pyrimido[4,5-d][1,3]oxazin-1(4H)-yl)phenyl)acrylamide] | 38 nM | 5.4 nM | 4–7 fold and 7 fold | 821 ± 162 nM | 400 ± 257 nM | 2.1 fold | – | – | – | – | – | – | –
5 | C=CC(=O)Nc1cccc(N2C(=O)OC(CC)c3cnc(Nc4ccc(N5CCN(C)CC5)cc4OC)nc32)c1 (centres unmarked) [16b, N-(3-(4-Ethyl-7-((2-methoxy-4-(4-methylpiperazin-1-yl)phenyl)amino)-2-oxo-2H-pyrimido[4,5-d][1,3]oxazin-1(4H)-yl)phenyl)acrylamide] | 23 ± 10 nM | 6.1 nM | 4–7 fold and 3.8 fold | 554 ± 285 nM | 200 ± 83 nM | 2.8 fold | – | – | – | – | – | – | –
6 | C=CC(=O)Nc1cccc(N2C(=O)OCc3cnc(Nc4ccc(N5CCN(C)CC5)cc4OC)nc32)c1 [16e, N-(3-(7-((2-Methoxy-4-(4-methylpiperazin-1-yl)phenyl)amino)-2-oxo-2H-pyrimido[4,5-d][1,3]oxazin-1(4H)-yl)phenyl)acrylamide] | 24 nM | 7.3 nM | 3.3 fold | 1070 ± 241 nM | 222 ± 84 nM | 4.8 fold | – | – | – | – | – | – | –
7 | C=CC(=O)Nc1cccc(N2C(=O)OC(CCC)c3cnc(Nc4ccc(N5CCN(C)CC5)cc4OC)nc32)c1 (centres unmarked) [16c, N-(3-(7-((2-Methoxy-4-(4-methylpiperazin-1-yl)phenyl)amino)-2-oxo-4-propyl-2H-pyrimido[4,5-d][1,3]oxazin-1(4H)-yl)phenyl)acrylamide] | 224 ± 41 nM | 158 ± 27 nM | 1.4 fold | 2110 ± 877 nM | 1340 ± 791 nM | 1.6 fold | – | – | – | – | – | – | –
8 | C=CC(=O)Nc1cccc(N2C(=O)OC(CC)(CC)c3cnc(Nc4ccc(N5CCN(C)CC5)cc4OC)nc32)c1 [20b, N-(3-(4,4-Diethyl-7-((2-methoxy-4-(4-methylpiperazin-1-yl)phenyl)amino)-2-oxo-2H-pyrimido[4,5-d][1,3]oxazin-1(4H)-yl)phenyl)acrylamide] | > 1000 nM | > 1000 nM | – | 7040 ± 455 nM | 3710 ± 1370 nM | 1.9 fold | – | – | – | – | – | – | –
9 | C=CC(=O)Nc1cccc(-n2c(=O)c(=O)n(C)c3cnc(Nc4ccc(N5CCN(C)CC5)cc4OC)nc32)c1 [compound 9] | – | – | – | – | – | – | – | – | – | – | – | – | 101 fold
10 | C=CC(=O)Nc1cccc(N2C(=O)OC(CCC)(CCC)c3cnc(Nc4ccc(N5CCN(C)CC5)cc4OC)nc32)c1 [20c, N-(3-(7-((2-Methoxy-4-(4-methylpiperazin-1-yl)phenyl)amino)-2-oxo-4,4-dipropyl-2H-pyrimido[4,5-d][1,3]oxazin-1(4H)-yl)phenyl)acrylamide] | > 1000 nM | > 1000 nM | – | 6400 ± 349 nM | 9390 ± 1740 nM | 0.7 fold | – | – | – | – | – | – | –
